From patent US6337328B1, “Bupropion metabolites and methods of use” (priority 1999, dated 2002) come the findings set out here.

Assay type in all cases: biochemical
Experiment [1] addresses T1, norepinephrine (NE) reuptake, rat hypothalamus (Rattus norvegicus, UniProt Q63380).
T1 construct: using rat hypothalamus as a tissue source; from tissue; host or cells: rat hypothalamus synaptosomes
Kind of experiment: Inhibition of norepinephrine (NE) reuptake, [3H]NE incorporation into synaptosomes. As to conditions: for NE reuptake Hill coefficient (nH): Hill equation curve fitting; for pIC50: [3H]NE 0.2 μCi/mL, 20 min/37° C. The method, then: (§1) Bupropion metabolites can be screened for their ability to inhibit the reuptake of the neuronal monoamines norepiniephrine (NE), dopaminc (DA), and serotonin (5-HT). […] Other assays known to those skilled in the art may also be used.
(§2) Inhibition of norepincphrinie (NE) reuptake was determined using rat hypothalamus as a tissue source and protryptiline as a reference compound. […] Inhibition of serotonin (5-HT) reuptake was determined using rat brain as a tissue source and imipramine as a reference compound.
(§3) wherein the end products observed were formed by the incorporation of [^3H]NE, [^3H]DA, and [^3H]5-HT into synaptosomes. Radioactivity was determined with a scintillation counter (Topcount, Packard) using a liquid scintillation cocktail (Microscint 0, Packard).
(§4) Raceinic bupropion and the bupropion metabolites were first tested in each assay at 10 μM in duplicate or triplicate. […] In each experiment, the respective reference compound was tested at eight concentrations in duplicate to obtain an inhibition curve in order to validate this experiment.
(§5) IC50 values and Hill coefficients (nH) were determined for the reference compounds and the test compounds (i.e., bupropion and metabolites of bupropion) by non-linear regression analysis of their inhibition curves. These parameters were obtained by Hill equation curve fitting.

The target of experiment [2] is T2, dopamine (DA) reuptake, rat corpora striata (Rattus norvegicus, UniProt P23977).
T2 construct: using rat corpora striata as a tissue source; from tissue; host or cells: rat corpora striata synaptosomes
T2 sequence (P23977 whole entry): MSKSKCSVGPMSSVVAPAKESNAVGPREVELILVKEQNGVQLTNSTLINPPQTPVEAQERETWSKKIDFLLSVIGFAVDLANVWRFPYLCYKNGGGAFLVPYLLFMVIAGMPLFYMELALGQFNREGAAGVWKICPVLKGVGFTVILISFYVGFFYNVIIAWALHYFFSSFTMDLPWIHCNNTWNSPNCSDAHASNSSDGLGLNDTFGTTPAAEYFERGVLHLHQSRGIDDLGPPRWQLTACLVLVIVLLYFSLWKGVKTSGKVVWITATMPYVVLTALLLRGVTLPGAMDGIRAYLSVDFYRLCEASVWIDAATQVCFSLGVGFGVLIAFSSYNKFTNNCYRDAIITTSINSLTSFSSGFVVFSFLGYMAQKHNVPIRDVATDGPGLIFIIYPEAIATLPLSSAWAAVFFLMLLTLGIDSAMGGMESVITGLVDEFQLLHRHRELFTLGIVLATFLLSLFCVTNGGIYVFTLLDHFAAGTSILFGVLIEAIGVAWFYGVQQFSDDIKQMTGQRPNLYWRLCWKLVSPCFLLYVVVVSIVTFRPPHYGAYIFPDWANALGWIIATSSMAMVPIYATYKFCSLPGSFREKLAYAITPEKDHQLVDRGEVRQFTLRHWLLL
Put plainly: Inhibition of dopamine (DA) reuptake, [3H]DA incorporation into synaptosomes. As to conditions: for DA reuptake Hill coefficient (nH): Hill equation curve fitting; for pIC50: [3H]DA 0.2 μCi/mL, 15 min/37° C. The method, then: as §1, §2, §3, §4, §5

In experiment [3] the target is T3, serotonin (5-HT) reuptake, rat brain (Rattus norvegicus, UniProt P31652).
T3 construct: using rat brain as a tissue source; from tissue; host or cells: rat brain synaptosomes
T3 sequence (P31652 whole entry): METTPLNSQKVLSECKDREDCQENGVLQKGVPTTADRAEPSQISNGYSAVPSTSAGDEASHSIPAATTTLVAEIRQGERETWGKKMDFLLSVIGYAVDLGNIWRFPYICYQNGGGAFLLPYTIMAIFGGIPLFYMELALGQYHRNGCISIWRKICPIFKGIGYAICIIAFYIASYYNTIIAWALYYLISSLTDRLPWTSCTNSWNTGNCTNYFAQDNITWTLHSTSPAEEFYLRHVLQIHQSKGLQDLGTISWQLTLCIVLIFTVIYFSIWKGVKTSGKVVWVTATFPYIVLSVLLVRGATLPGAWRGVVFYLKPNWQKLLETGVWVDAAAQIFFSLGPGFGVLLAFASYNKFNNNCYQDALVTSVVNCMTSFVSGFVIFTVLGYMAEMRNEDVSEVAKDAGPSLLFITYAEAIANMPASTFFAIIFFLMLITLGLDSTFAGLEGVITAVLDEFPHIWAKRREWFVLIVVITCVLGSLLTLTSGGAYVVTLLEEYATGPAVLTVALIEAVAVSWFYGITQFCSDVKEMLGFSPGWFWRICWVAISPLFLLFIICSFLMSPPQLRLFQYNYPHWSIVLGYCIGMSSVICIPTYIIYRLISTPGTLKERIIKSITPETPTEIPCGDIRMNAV
Kind of experiment: Inhibition of serotonin (5-HT) reuptake, [3H]5-HT incorporation into synaptosomes. As to conditions: [3H]5-HT 0.2 μCi/mL, 15 min/37° C., first tested at 10 μM. Here is the method: as §1, §2, §3, §4, §5

pIC50: −log10 of the molar value. Values joined by “and” are separate entries in the source; they are usually repeats but may differ in a detail not shown here. Equal values may be shown once.

T1 sequence (Q63380 1-617): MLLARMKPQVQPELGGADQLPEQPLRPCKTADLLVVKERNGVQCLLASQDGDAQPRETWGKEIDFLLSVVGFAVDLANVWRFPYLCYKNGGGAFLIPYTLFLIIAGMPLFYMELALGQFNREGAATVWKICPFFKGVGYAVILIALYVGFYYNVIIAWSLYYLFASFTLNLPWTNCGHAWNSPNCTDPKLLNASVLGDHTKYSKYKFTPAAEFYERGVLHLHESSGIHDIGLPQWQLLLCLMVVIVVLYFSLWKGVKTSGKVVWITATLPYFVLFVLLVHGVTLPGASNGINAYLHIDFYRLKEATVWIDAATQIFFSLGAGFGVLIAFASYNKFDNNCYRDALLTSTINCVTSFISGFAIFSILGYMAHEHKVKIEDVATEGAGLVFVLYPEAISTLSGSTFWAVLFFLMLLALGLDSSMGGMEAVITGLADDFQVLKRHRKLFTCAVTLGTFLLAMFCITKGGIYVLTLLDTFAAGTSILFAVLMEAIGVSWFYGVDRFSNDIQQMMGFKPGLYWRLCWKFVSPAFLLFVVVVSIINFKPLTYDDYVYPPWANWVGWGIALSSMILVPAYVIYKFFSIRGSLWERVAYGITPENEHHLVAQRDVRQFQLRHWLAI

With `CC(NC(C)(C)C)C(=O)c1cccc(Cl)c1` (racemic) [BP(±), (±)1-(3-chlorophenyl)-2-[(1,1-dimethylethyl)amino]-1-propanone, reference compound], in experiment [1], the “NE reuptake Hill coefficient (nH)” value is given as “(>3)”; the pIC50 is ~6.13 and 6.13. Also, in experiment [2], the “DA reuptake Hill coefficient (nH)” value is listed as “(0.9)”; the negative-log IC50 (pIC50) is ~6.53 and 6.53.

Consider `CC1NC(C)(C)COC1(O)c1cccc(Cl)c1` (racemic) [HBP(RS, RS), (RS,RS)-2-(3-chlorophenyl)-2-hydroxy-3,5,5-trimethyl-morpholinol], for which, in experiment [1], the “NE reuptake Hill coefficient (nH)” value is “(1.1)” and the pIC50 was 6.12.

`C[C@@H]1NC(C)(C)CO[C@@]1(O)c1cccc(Cl)c1` [HBP(S, S)]: in experiment [1], the “NE reuptake Hill coefficient (nH)” value is “(0.8)” and the pIC50 is 6.64. Moreover, in experiment [2], the “Inhibition of dopamine reuptake (in words)” value is given as “does not significantly inhibit dopamine reuptake”, the “DA reuptake Hill coefficient (nH)” value is on record as “(1.0)” and the negative logarithm of the IC50 (pIC50) is 5.85. Moreover, the pIC50 in experiment [2] (listed as (S,S)-hydroxybupropion) was around 5.85. Also, the “Inhibition of 5-HT reuptake (in words)” value in experiment [3] was “does not measurably inhibit serotonin uptake”.

As for `CNCCCC1c2ccccc2C=Cc2ccccc21` [protriptyline], in experiment [1], the “NE reuptake Hill coefficient (nH)” value was 2.6 and 1.4.
